≈ marks a conversion by molar mass, not a printed value.
Legend:
[1] = test system: Mycobacterium tuberculosis; test: Antitubercular activity against Mycobacterium tuberculosis H37Rv by resazurin dye based microtiter plate assay; type: functional
[2] = Cytotoxicity against human HeLa cells assessed as cytolytic effect incubated for 72 hrs by methylene blue staining based colorimetric analysis; type: toxicity, cell-based
[3] = Selectivity index, ratio of CC50 for cytotoxicity against human HeLa cells to MIC for antitubercular activity against Mycobacterium tuberculosis H37Rv; type: toxicity, cell-based; conditions: read-out: Selectivity Index
[4] = Metabolic stability in human liver microsomes assessed as hepatic extraction ratio at 20 uM measured upto 90 mins in presence of NADP regenerating system by high-resolution mass spectrometry; type: ADME, Microsome; conditions: read-out: ERH
[5] = Metabolic stability in human liver microsomes assessed as half life at 20 uM measured upto 90 mins in presence of NADP regenerating system by high-resolution mass spectrometry; type: ADME, Microsome
[6] = Metabolic stability in human liver assessed as intrinsic clearance at 20 uM measured upto 90 mins in presence of NADP regenerating system by high-resolution mass spectrometry; type: ADME, tissue-based; conditions: read-out: CLH
[7] = Metabolic stability in human liver microsomes assessed as intrinsic clearance at 20 uM measured upto 90 mins in presence of NADP regenerating system by high-resolution mass spectrometry; type: ADME, Microsome; conditions: read-out: CLH
[8] = Cmax in mouse RAW264.7 cells at 77 uM incubated for 8 hrs by UHPLC-HRMS analysis; type: ADME, cell-based
[9] = Tmax in mouse RAW264.7 cells at 77 uM incubated for 8 hrs by UHPLC-HRMS analysis; type: ADME, cell-based
[10] = Half life in mouse RAW264.7 cells at 77 uM incubated for 8 hrs by UHPLC-HRMS analysis; type: ADME, cell-based
[11] = Apparent oral clearance in BALB/cAnNCrl mouse at 250 mg/kg measured upto 24 hrs by UHPLC-HRMS analysis; type: ADME, organism-based; conditions: in vivo
[12] = Drug metabolism in BALB/c cAnNCrl mouse assessed as HMC metabolite formation at 250 mg/kg, po measured upto 24 hrs by UHPLC-HRMS analysis; type: ADME, organism-based; conditions: in vivo
[13] = Stability in mouse RAW264.7 cells assessed as parent compound remaining at 77 uM after 8 hrs by UHPLC-HRMS analysis; type: ADME, cell-based; conditions: read-out: Stability
[14] = Apparent volume of distribution during terminal phase in BALB/cAnNCrl mouse at 250 mg/kg, po measured upto 24 hrs by UHPLC-HRMS analysis; type: ADME, organism-based; conditions: in vivo, read-out: Vz/F
[15] = Tmax in BALB/cAnNCrl mouse at 250 mg/kg, po measured upto 24 hrs by UHPLC-HRMS analysis; type: ADME, organism-based; conditions: in vivo
[16] = test system: Mycobacterium tuberculosis; test: Antitubercular activity against Mycobacterium tuberculosis H37Rv infected in BALB/c mouse assessed as reduction of colony forming unit in spleen administered once daily for 6 weeks by agar dilution method; type: functional, organism-based; conditions: dose 25-250 mg/kg/day, route po
[17] = Half life in BALB/cAnNCrl mouse at 250 mg/kg, po measured upto 24 hrs by UHPLC-HRMS analysis; type: ADME, organism-based; conditions: in vivo
[18] = Cmax in BALB/cAnNCrl mouse at 250 mg/kg, po measured upto 24 hrs by UHPLC-HRMS analysis; type: ADME, organism-based; conditions: in vivo
[19] = Toxicity in BALB/c mouse infected with Mycobacterium tuberculosis H37Rv assessed as drug tolerance at 25 to 250 mg/kg/day, po qd administered for 6 weeks; type: organism-based; conditions: in vivo, 1008 h, dose 25-250 mg/kg/day
[20] = test system: Mycobacterium tuberculosis; test: Antitubercular activity against Mycobacterium tuberculosis H37Rv infected in BALB/c mouse assessed as reduction of colony forming unit in lung administered once daily for 6 weeks by agar dilution method; type: functional, organism-based; conditions: dose 25-250 mg/kg/day, route po
[21] = AUC (0 to infinity) in BALB/cAnNCrl mouse at 250 mg/kg, po measured upto 24 hrs by UHPLC-HRMS analysis; type: ADME, organism-based; conditions: in vivo
[22] = Drug metabolism in cattle assessed as hydride meisenheimer complex formation by UHPLC-HRMS analysis; type: ADME, Bos taurus
[23] = Drug metabolism in rat assessed as hydride meisenheimer complex formation by UHPLC-HRMS analysis; type: ADME
[24] = Drug metabolism in CD1 mouse muscle assessed as hydride meisenheimer complex formation by UHPLC-HRMS analysis; type: ADME, tissue-based, Muscle tissue
[25] = Drug metabolism in CD1 mouse heart assessed as hydride meisenheimer complex formation by UHPLC-HRMS analysis; type: ADME, tissue-based
[26] = Drug metabolism in CD1 mouse liver assessed as hydride meisenheimer complex formation by UHPLC-HRMS analysis; type: ADME, tissue-based
[27] = Drug metabolism in goat assessed as hydride meisenheimer complex formation by UHPLC-HRMS analysis; type: ADME, Capra hircus
[28] = Drug metabolism in CD1 mouse lung assessed as hydride meisenheimer complex formation by UHPLC-HRMS analysis; type: ADME, tissue-based
[29] = Drug metabolism in CD1 mouse kidney assessed as hydride meisenheimer complex formation by UHPLC-HRMS analysis; type: ADME, tissue-based
[30] = Drug metabolism in CD1 mouse brain assessed as hydride meisenheimer complex formation by UHPLC-HRMS analysis; type: ADME, tissue-based
[31] = Drug metabolism in CD1 mouse spleen assessed as hydride meisenheimer complex formation by UHPLC-HRMS analysis; type: ADME, tissue-based
[32] = Drug metabolism in sheep assessed as hydride meisenheimer complex formation by UHPLC-HRMS analysis; type: ADME, Ovis aries
[33] = Drug metabolism in CD1 mouse blood assessed as hydride meisenheimer complex formation by UHPLC-HRMS analysis; type: ADME, tissue-based

Compound	MIC [1]	CC50 at 72 h [2]	selectivity ratio [3]	hepatic extraction ratio at 1.5 h, 20 µM [4]	half-life at 20 µM [5]	CLint scaled at 20 µM [6]	microsomal CLint at 20 µM [7]	further results
Cc1c(C(F)(F)F)cc2c(=O)nc(N3CCN(CC4CCCCC4)CC3)sc2c1[N+](=O)[O-]	0.797 µM (≈ 0.375 µg/mL)	64 µM	80					
Cc1c(C(F)(F)F)cc([N+](=O)[O-])c2sc(N3CCC(Oc4ccc(OC(F)(F)F)cc4)CC3)nc(=O)c12	0.91 µM (≈ 0.5 µg/mL)	> 91 µM	100	0.702	0.572 h	47.1 mL/min/kg	40.8 µL/min/mg	
O=c1nc(N2CCN(CC3CCCCC3)CC2)sc2c([N+](=O)[O-])cc(C(F)(F)F)cc12 [MACOZINONE]	0.0011 µM (≈ 0.000502 µg/mL)	> 110 µM	100000					
Cc1c(C(F)(F)F)c(C)c2c(=O)nc(N3CCC4(CC3)OC[C@H](C)O4)sc2c1[N+](=O)[O-]	4.35 µM (≈ 2 µg/mL)	93 µM	21					
C[C@H]1COC2(CCN(c3nc(=O)c4cc(C(F)(F)F)cc(N)c4s3)CC2)O1								Cmax at 77 µM [8]: 2000 ng/mL; Tmax at 77 µM [9]: 8 h; half-life at 77 µM [10]: 13 h
Cc1c(C(F)(F)F)cc2c(=O)nc(N3CCC4(CC3)OC[C@H](C)O4)sc2c1[N+](=O)[O-]	0.842 µM (≈ 0.375 µg/mL)	87 µM	104	0.329	2.75 h	9.8 mL/min/kg	8.5 µL/min/mg	
O=c1nc(N2CCC(Oc3ccc(OC(F)(F)F)cc3)CC2)sc2c([N+](=O)[O-])cc(C(F)(F)F)cc12	0.0056 µM (≈ 0.003 µg/mL)	> 93 µM	16700					
Cc1c(C(F)(F)F)cc2c(=O)nc(N3CCN(S(=O)(=O)c4ccc(OC(F)(F)F)cc4)CC3)sc2c1[N+](=O)[O-]	> 6.68 µM	> 84 µM	13					
C#Cc1c(C(F)(F)F)cc([N+](=O)[O-])c2sc(N3CCC4(CC3)OC[C@H](C)O4)nc(=O)c12	> 8.78 µM	9 µM	1					
Cc1c(C(F)(F)F)cc([N+](=O)[O-])c2sc(N3CCN(CC4CCCCC4)CC3)nc(=O)c12	0.056 µM (≈ 0.0263 µg/mL)	53 µM	50000	0.661	0.692 h	39 mL/min/kg	33.7 µL/min/mg	
Cc1c(C(F)(F)F)cc2c(=O)nc(N3CCC(Oc4ccc(OC(F)(F)F)cc4)CC3)sc2c1[N+](=O)[O-]	3.64 µM (≈ 2 µg/mL)	> 91 µM	25	0.543	1.13 h	23.8 mL/min/kg	20.6 µL/min/mg	
Cc1c(C(F)(F)F)cc([N+](=O)[O-])c2sc(N3CCC4(CC3)OC[C@H](C)O4)nc(=O)c12	0.053 µM (≈ 0.0236 µg/mL)	> 110 µM	8330	0.443	1.7 h	15.9 mL/min/kg	13.7 µL/min/mg	Cmax at 77 µM [8]: 504 ng/mL; CL/F [11]: 267 mL/min/kg; Drug metabolism [12]: Metabolite_Notdetected; remaining at 8 h, 77 µM [13]: 76.6%; Vd/F [14]: 108 L/kg; Tmax [15]: 0.5 h; Activity [16]: Dose-Dependent Effect; Tmax at 77 µM [9]: 0.17 h; half-life [17]: 4.6 h; Cmax [18]: 2410 ng/mL; Activity [19]: Non-Toxic; half-life at 77 µM [10]: 20.2 h; Activity [20]: Dose-Dependent Effect; AUC [21]: 15600 ng·h/mL
Cc1c(C(F)(F)F)cc([N+](=O)[O-])c2sc(N3CCN(S(=O)(=O)c4ccc(OC(F)(F)F)cc4)CC3)nc(=O)c12	> 6.68 µM	> 84 µM	13					
C[C@H]1COC2(CCN(c3nc(=O)c4cc(C(F)(F)F)cc([N+](=O)[O-])c4s3)CC2)O1 [BTZ-043]	0.00348 µM (≈ 0.0015 µg/mL)	> 120 µM	33300					Drug metabolism [22]: Metabolite_Detected; Drug metabolism [23]: Metabolite_Detected; Drug metabolism [24]: Metabolite_Detected; Cmax at 77 µM [8]: 3950 ng/mL; Drug metabolism [25]: Metabolite_Detected; Drug metabolism [26]: Metabolite_Detected; Drug metabolism [27]: Metabolite_Detected; Drug metabolism [28]: Metabolite_Detected; Drug metabolism [29]: Metabolite_Detected; Drug metabolism [30]: Metabolite_Detected; Tmax at 77 µM [9]: 0 h; Drug metabolism [31]: Metabolite_Detected; Drug metabolism [32]: Metabolite_Detected; Drug metabolism [33]: Metabolite_Detected; half-life at 77 µM [10]: 2.3 h
O=c1nc(N2CCN(S(=O)(=O)c3ccc(OC(F)(F)F)cc3)CC2)sc2c([N+](=O)[O-])cc(C(F)(F)F)cc12	0.108 µM (≈ 0.0631 µg/mL)	43 µM	397					
